Test results published in PubChem BioAssay AID1963427 (Molecular Pharmacology Branch, DTP, NCI, 2024).
“And” between values parts separate entries of the source, which are not always exact repeats. Equal values may be shown once.

Tested on: 317291-083-R-J1-PDC complex spheroid growth
Experiment: Anticancer human tumor 317291-083-R-J1-PDC patient-derived soft tissue sarcoma cell line growth inhibition [Asc]
Details: for viability, T/C: stronger effect = lower value
Method in brief: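 Stromal components (HUVEC and hMSC) are co-assembled with the cancer cells into multicellular spheroids. Drugs are then added singly or paired, at concentrations falling by half-log increments from a clinically achievable maximum, capped at 10 microM without known Cmax.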

[1] = curve of first compound, second compound 0.00949 µM
[2] = curve of first compound, second compound 0.03 µM
[3] = curve of first compound, second compound 0.0949 µM
[4] = curve of first compound, second compound 0.3 µM
[5] = curve of first compound, second compound 0.949 µM
[6] = curve of first compound, second compound 3 µM
[7] = second compound 0.00949 µM, first compound 0.0316 µM
[8] = second compound 0.00949 µM, first compound 0.1 µM
[9] = second compound 0.03 µM, first compound 0.0316 µM
[10] = second compound 0.03 µM, first compound 0.1 µM
[11] = second compound 0.0949 µM, first compound 0.0316 µM
[12] = second compound 0.0949 µM, first compound 0.1 µM
[13] = second compound 0.3 µM, first compound 0.0316 µM
[14] = second compound 0.3 µM, first compound 0.1 µM
[15] = second compound 0.949 µM, first compound 0.0316 µM
[16] = second compound 0.949 µM, first compound 0.1 µM
[17] = second compound 3 µM, first compound 0.0316 µM
[18] = second compound 3 µM, first compound 0.1 µM
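Also: compound exposure lasted seven days after spheroids formed for three days.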
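For viability, T/C in this document: 100% = DMSO vehicle control wells.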

`Cn1ncnc1[C@H]1c2n[nH]c(=O)c3cc(F)cc(c23)N[C@@H]1c1ccc(F)cc1` + CCN1C(C(=O)NC23CCC(C(=O)O)(CC2)CC3)C(c2cccc(Cl)c2F)C2(C(=O)Nc3cc(Cl)ccc32)C12CCCCC2 showed an IC50 [1] greater than 100 nM, an IC50 [2] greater than 100 nM and an IC50 [3] greater than 100 nM. The IC50 [4] was greater than 100 nM, the IC50 [5] was greater than 100 nM and the IC50 [6] was greater than 100 nM. It also gave a viability, T/C (second compound 0.00949 µM, first compound 0.000316 µM) of 108%, a viability, T/C (second compound 0.00949 µM, first compound 0.001 µM) of 88.4% and a viability, T/C (second compound 0.00949 µM, first compound 0.00316 µM) of 102%. The viability, T/C (second compound 0.00949 µM, first compound 0.01 µM) was 100%, the viability, T/C [7] was 81.9% and the viability, T/C [8] was 66.9%. It also gave a viability, T/C (second compound 0.03 µM, first compound 0.000316 µM) of 99.6%, a viability, T/C (second compound 0.03 µM, first compound 0.001 µM) of 107% and a viability, T/C (second compound 0.03 µM, first compound 0.00316 µM) of 105%. It also gave a viability, T/C (second compound 0.03 µM, first compound 0.01 µM) of 81.3%, a viability, T/C [9] of 76.1% and a viability, T/C [10] of 87.3%. It also gave a viability, T/C (second compound 0.0949 µM, first compound 0.000316 µM) of 95.3%, a viability, T/C (second compound 0.0949 µM, first compound 0.001 µM) of 96% and a viability, T/C (second compound 0.0949 µM, first compound 0.00316 µM) of 103%. It also gave a viability, T/C (second compound 0.0949 µM, first compound 0.01 µM) of 86.3%, a viability, T/C [11] of 77.6% and a viability, T/C [12] of 70.4%. It also gave a viability, T/C (second compound 0.3 µM, first compound 0.000316 µM) of 106%, a viability, T/C (second compound 0.3 µM, first compound 0.001 µM) of 101% and a viability, T/C (second compound 0.3 µM, first compound 0.00316 µM) of 107%. The viability, T/C (second compound 0.3 µM, first compound 0.01 µM) was 89.5%, the viability, T/C [13] was 73.9% and the viability, T/C [14] was 64.6%. For the same compound, the viability, T/C (second compound 0.949 µM, first compound 0.000316 µM) was 95.4%, the viability, T/C (second compound 0.949 µM, first compound 0.001 µM) was 89.3% and the viability, T/C (second compound 0.949 µM, first compound 0.00316 µM) was 103%. It also gave a viability, T/C (second compound 0.949 µM, first compound 0.01 µM) of 93.6%, a viability, T/C [15] of 75.8% and a viability, T/C [16] of 72.1%. It also gave a viability, T/C (second compound 3 µM, first compound 0.000316 µM) of 82%, a viability, T/C (second compound 3 µM, first compound 0.001 µM) of 69% and a viability, T/C (second compound 3 µM, first compound 0.00316 µM) of 77.4%. The viability, T/C (second compound 3 µM, first compound 0.01 µM) was 79.7%, the viability, T/C [17] was 65.1% and the viability, T/C [18] was 62.7%.
With `CCN1CCN(Cc2ccc(Nc3ncc(F)c(-c4cc(F)c5nc(C)n(C(C)C)c5c4)n3)nc2)CC1` the viability, T/C (compound 0.00316 µM) was 91.8% and 94.4% and 104%, the viability, T/C (compound 0.01 µM) was 93.8% and 95.1% (2×) and the viability, T/C (compound 0.0316 µM) was 99.1% and 98.7% and 102%. The viability, T/C (compound 0.1 µM) was 101% and 97.3% and 89.7%, the viability, T/C (compound 0.316 µM) was 72.4% and 84.1% and 82.4% and the viability, T/C (compound 1 µM) was 49.5% and 82.8% and 50.7%. For the same compound, the IC50 (curve of compound) was greater than 1000 nM.
For `COc1c(OCCCN2CCOCC2)ccc2c3n(c(=NC(=O)c4cnc(N)nc4)nc12)CCN3` + Cc1c(S(C)(=O)=O)c(-c2cc(F)cc(N3CCN(c4ccc(NS(=O)(=O)c5ccc(NC(CCN6CCC(C(=O)OCCCP(=O)(O)O)CC6)CSc6ccccc6)c(S(=O)(=O)C(F)(F)F)c5)cc4)CC3)c2)c(-c2ccc(Cl)cc2)n1C(C)C, the IC50 (curve of first compound, second compound 0.0316 µM) was 104 nM, the IC50 (curve of first compound, second compound 0.1 µM) was 88 nM and the IC50 (curve of first compound, second compound 0.316 µM) was 88.4 nM. It also gave an IC50 (curve of first compound, second compound 1 µM) of 78 nM, an IC50 (curve of first compound, second compound 3.16 µM) of 62.9 nM and an IC50 (curve of first compound, second compound 10 µM) of 95.3 nM. It also gave a viability, T/C (second compound 0.0316 µM, first compound 0.00316 µM) of 116%, a viability, T/C (second compound 0.0316 µM, first compound 0.01 µM) of 116% and a viability, T/C (second compound 0.0316 µM, first compound 0.0316 µM) of 78%. The viability, T/C (second compound 0.0316 µM, first compound 0.1 µM) was 52.9%, the viability, T/C (second compound 0.0316 µM, first compound 0.316 µM) was 27% and the viability, T/C (second compound 0.0316 µM, first compound 1 µM) was 13%. The viability, T/C (second compound 0.1 µM, first compound 0.00316 µM) was 106%, the viability, T/C (second compound 0.1 µM, first compound 0.01 µM) was 76.6% and the viability, T/C (second compound 0.1 µM, first compound 0.0316 µM) was 62.5%. The viability, T/C (second compound 0.1 µM, first compound 0.1 µM) was 54.7%, the viability, T/C (second compound 0.1 µM, first compound 0.316 µM) was 28.1% and the viability, T/C (second compound 0.1 µM, first compound 1 µM) was 13.5%. It also gave a viability, T/C (second compound 0.316 µM, first compound 0.00316 µM) of 91.3%, a viability, T/C (second compound 0.316 µM, first compound 0.01 µM) of 85.5% and a viability, T/C (second compound 0.316 µM, first compound 0.0316 µM) of 69.7%. It also gave a viability, T/C (second compound 0.316 µM, first compound 0.1 µM) of 44.7%, a viability, T/C (second compound 0.316 µM, first compound 0.316 µM) of 30.1% and a viability, T/C (second compound 0.316 µM, first compound 1 µM) of 11.7%. For the same compound, the viability, T/C (second compound 1 µM, first compound 0.00316 µM) was 86.2%, the viability, T/C (second compound 1 µM, first compound 0.01 µM) was 88% and the viability, T/C (second compound 1 µM, first compound 0.0316 µM) was 63.2%. It also gave a viability, T/C (second compound 1 µM, first compound 0.1 µM) of 44.8%, a viability, T/C (second compound 1 µM, first compound 0.316 µM) of 28.2% and a viability, T/C (second compound 1 µM, first compound 1 µM) of 12.1%. It also gave a viability, T/C (second compound 3.16 µM, first compound 0.00316 µM) of 65.6%, a viability, T/C (second compound 3.16 µM, first compound 0.01 µM) of 54.8% and a viability, T/C (second compound 3.16 µM, first compound 0.0316 µM) of 60.9%. For the same compound, the viability, T/C (second compound 3.16 µM, first compound 0.1 µM) was 43.7%, the viability, T/C (second compound 3.16 µM, first compound 0.316 µM) was 21.3% and the viability, T/C (second compound 3.16 µM, first compound 1 µM) was 9.02%. The viability, T/C (second compound 10 µM, first compound 0.00316 µM) was 100%, the viability, T/C (second compound 10 µM, first compound 0.01 µM) was 90.2% and the viability, T/C (second compound 10 µM, first compound 0.0316 µM) was 70.7%. It also gave a viability, T/C (second compound 10 µM, first compound 0.1 µM) of 54.2%, a viability, T/C (second compound 10 µM, first compound 0.316 µM) of 19.2% and a viability, T/C (second compound 10 µM, first compound 1 µM) of 7.2%.
Compound `C=C(F)C(=O)N1CCN(c2nc(OCC3CCCN3C)nc3c2CCN(c2cccc4cccc(Cl)c24)C3)CC1CC#N` (stereo not drawn) + CCN1C(C(=O)NC23CCC(C(=O)O)(CC2)CC3)C(c2cccc(Cl)c2F)C2(C(=O)Nc3cc(Cl)ccc32)C12CCCCC2 has an IC50 [1] of 2510 nM, an IC50 [2] of 2830 nM and an IC50 [3] of 3940 nM. It also gave an IC50 [4] of 1980 nM, an IC50 [5] of 2430 nM and an IC50 [6] of 2110 nM. It also gave a viability, T/C [7] of 105%, a viability, T/C [8] of 101% and a viability, T/C (second compound 0.00949 µM, first compound 0.316 µM) of 90.2%. For the same compound, the viability, T/C (second compound 0.00949 µM, first compound 1 µM) was 93.2%, the viability, T/C (second compound 0.00949 µM, first compound 3.16 µM) was 39.3% and the viability, T/C (second compound 0.00949 µM, first compound 10 µM) was 0.31%. For the same compound, the viability, T/C [9] was 92.7%, the viability, T/C [10] was 91.8% and the viability, T/C (second compound 0.03 µM, first compound 0.316 µM) was 99.3%. It also gave a viability, T/C (second compound 0.03 µM, first compound 1 µM) of 95.2%, a viability, T/C (second compound 0.03 µM, first compound 3.16 µM) of 45.1% and a viability, T/C (second compound 0.03 µM, first compound 10 µM) of 0.14%. The viability, T/C [11] was 106%, the viability, T/C [12] was 89% and the viability, T/C (second compound 0.0949 µM, first compound 0.316 µM) was 122%. It also gave a viability, T/C (second compound 0.0949 µM, first compound 1 µM) of 98.7%, a viability, T/C (second compound 0.0949 µM, first compound 3.16 µM) of 61.9% and a viability, T/C (second compound 0.0949 µM, first compound 10 µM) of 0.14%. The viability, T/C [13] was 106%, the viability, T/C [14] was 92.4% and the viability, T/C (second compound 0.3 µM, first compound 0.316 µM) was 92.7%. For the same compound, the viability, T/C (second compound 0.3 µM, first compound 1 µM) was 86.8%, the viability, T/C (second compound 0.3 µM, first compound 3.16 µM) was 24.8% and the viability, T/C (second compound 0.3 µM, first compound 10 µM) was 0.21%. It also gave a viability, T/C [15] of 104%, a viability, T/C [16] of 93% and a viability, T/C (second compound 0.949 µM, first compound 0.316 µM) of 91.9%. For the same compound, the viability, T/C (second compound 0.949 µM, first compound 1 µM) was 98%, the viability, T/C (second compound 0.949 µM, first compound 3.16 µM) was 36.1% and the viability, T/C (second compound 0.949 µM, first compound 10 µM) was 0.19%. For the same compound, the viability, T/C [17] was 78.2%, the viability, T/C [18] was 91.9% and the viability, T/C (second compound 3 µM, first compound 0.316 µM) was 85.5%. It also gave a viability, T/C (second compound 3 µM, first compound 1 µM) of 64.5%, a viability, T/C (second compound 3 µM, first compound 3.16 µM) of 41.4% and a viability, T/C (second compound 3 µM, first compound 10 µM) of 1.13%.
